Results on 1 molecule are retold here after patent US4183931A, “2-Ketoalkyl-4(3H)-quinazolinones” (Research Corporation, priority 1977, dated 1980).

Where two headings read alike, the source gives them in different places.

Data set [1] in a line: NPP maximal electroshock seizure (MES) protection. Format: in vivo, white male mice of the Carworth Farm Strain CF-1. The settings on record: Mus musculus, ip; conducted at 30 mg/kg i.p.
Data set [2] can be described thus: NPP lethality (estimated LD50). The settings on record: mouse, in vivo, ip.
Data set [3] can be described thus: Neuropharmacological Profile (NPP): general CNS observational screen (depression, righting reflex, ataxia).
The nature of data set [4]: NINCDS Maximal Electroshock Seizure Test (MES). The settings on record: for minimal effective dose: read-out: MES: dosage level that elicited protection. The format is in vivo, mice.
Data set [5] is described as follows: NINCDS primary evaluation, overall classification. The settings on record: mouse, in vivo. Format: in vivo, mice. The method, then: 1. Neurological Activity Tests. The biological testing program is designed to evaluate the following four aspects of drug action: (1) the existence and specificity of anticonvulsant activity; (2) the toxicity, particularly to the central nervous system; and, if the results of (1) and (2) are favorable, (3) the potency and protective index, a comparison between toxic and effective dose and (4) the time course of activity. Compounds were evaluated for anticonvulsant activity in two seizure models, the maximal electroshock seizure (MES) test and the subcutaneous pentylenetetrazol (Metrazol) seizure threshold (scMet) test.
Specific anticonvulsant evaluations performed by NINCDS using MES, scMet and Rotorod assays are presented in Tables III & IV for fourteen new compounds as well as several known compounds. Table III centers attention on 2-substituted-3-o-tolyl-4-(3H)-quinazolinones while Table IV includes the findings for various other 2,3-disubstituted-4(3H)-quinazolinones. As described earlier, the MES, scMet and Rotorod tests were performed one-half hour and four hours after administration of each compound. The tables identify the dosage level that elicited a positive result, such as protection against MES and scMet induced seizures, or loss of balance on the rotorod.

Where [6] appears, read: at 100 mg/kg, i.p., mice, score 0-8.

By LD50 is commonly meant the dose expected to kill half of the subjects tested. In general, ED50 refers to the midpoint of the dose-response relation.

Turning to `O=C(Cc1nc2ccccc2c(=O)n1-c1ccccc1Cl)c1ccncc1` [IVd, 2-[2-Oxo-2-(4-pyridyl)ethyl]-3-o-chlorophenyl-4(3H)-quinazolinone], the responders at 30 mg/kg in data set [1] amounted to 50%. In addition, the LD50 at 48 h in data set [2] was 237 mg/kg. Moreover, the “behavioral activity compared with methaqualone” value in data set [3] (NPP summary) is recorded as “approaches that of methaqualone”. This molecule had a Depression in data set [3] (at 10 mg/kg, i.p., mice, score 0-8) of 2. Besides, in data set [3] (at 30 mg/kg (value in parentheses), i.p., mice, score 0-8), the “CNS Depression” value is given as 2. Also, in data set [3] (setting [6]), the Ataxia is 6, the “CNS Depression” value turned out to be 6 and the Righting reflex came out at 8. Moreover, in data set [4] (Mus musculus, ip, after 0.5 hr), the minimal effective dose stood at 300 mg/kg. Further, in data set [4] (Mus musculus, ip, after 4 hr (value in parentheses)), the minimal effective dose was 100 mg/kg. This molecule also had an ED50 in data set [4] (Mus musculus, ip, secondary evaluation, at time of peak effect) of 33.5 mg/kg. In data set [4] (secondary evaluation), the “MES protective index compared with methaqualone” value is reported as “approximately four-fold higher”, the “PI MES (Protective Index = TD50/ED50)” value came to 4.08 and the “potency against electroshock-induced (MES) seizures compared with methaqualone” value is “more potent”. In addition, the “MES protective index compared with commercial agents” value in data set [4] (vs Ethotoin, Mephenytoin, Phenobarbital, Metharbital, Trimethadione, Paramethadione, Methsuximide, Phensuximide, Diazepam, Clonazepam) is on record as “higher MES protective index”. In data set [5], the “dosage for useful anticonvulsant activity relative to dosage for sedative-hypnotic activity” value was “fourfold lower”.
